From ChEMBL document CHEMBL1154059, “Synthesis and biological evaluation of novel 4,5-bis(dialkylaminoalkyl)-substituted acridines as potent telomeric G-quadruplex ligands” (Eur J Med Chem, 2009)

Assays:
[1] = target: Telomerase reverse transcriptase (Homo sapiens, UniProt O14746); assay: Inhibition of human telomerase in HT1080 cells by TRAP assay
Nucleic Acid [2] = assay: Binding affinity to human telomeric DNA G-quadruplex assessed as change in melting temperature at 1 uM by FRET assay; type: nucleic-acid assay
Nucleic Acid [3] = assay: Binding affinity to human telomeric DNA G-quadruplex assessed as change in melting temperature at 10 uM by FRET assay; type: nucleic-acid assay
Nucleic Acid [4] = assay: Binding affinity to human telomeric DNA G-quadruplex assessed as change in melting temperature at 5 uM by FRET assay; type: nucleic-acid assay
Nucleic Acid [5] = assay: Binding affinity to human telomeric DNA G-quadruplex assessed as change in melting temperature at 20 uM by FRET assay; type: nucleic-acid assay

Chain of Telomerase reverse transcriptase (O14746 whole entry): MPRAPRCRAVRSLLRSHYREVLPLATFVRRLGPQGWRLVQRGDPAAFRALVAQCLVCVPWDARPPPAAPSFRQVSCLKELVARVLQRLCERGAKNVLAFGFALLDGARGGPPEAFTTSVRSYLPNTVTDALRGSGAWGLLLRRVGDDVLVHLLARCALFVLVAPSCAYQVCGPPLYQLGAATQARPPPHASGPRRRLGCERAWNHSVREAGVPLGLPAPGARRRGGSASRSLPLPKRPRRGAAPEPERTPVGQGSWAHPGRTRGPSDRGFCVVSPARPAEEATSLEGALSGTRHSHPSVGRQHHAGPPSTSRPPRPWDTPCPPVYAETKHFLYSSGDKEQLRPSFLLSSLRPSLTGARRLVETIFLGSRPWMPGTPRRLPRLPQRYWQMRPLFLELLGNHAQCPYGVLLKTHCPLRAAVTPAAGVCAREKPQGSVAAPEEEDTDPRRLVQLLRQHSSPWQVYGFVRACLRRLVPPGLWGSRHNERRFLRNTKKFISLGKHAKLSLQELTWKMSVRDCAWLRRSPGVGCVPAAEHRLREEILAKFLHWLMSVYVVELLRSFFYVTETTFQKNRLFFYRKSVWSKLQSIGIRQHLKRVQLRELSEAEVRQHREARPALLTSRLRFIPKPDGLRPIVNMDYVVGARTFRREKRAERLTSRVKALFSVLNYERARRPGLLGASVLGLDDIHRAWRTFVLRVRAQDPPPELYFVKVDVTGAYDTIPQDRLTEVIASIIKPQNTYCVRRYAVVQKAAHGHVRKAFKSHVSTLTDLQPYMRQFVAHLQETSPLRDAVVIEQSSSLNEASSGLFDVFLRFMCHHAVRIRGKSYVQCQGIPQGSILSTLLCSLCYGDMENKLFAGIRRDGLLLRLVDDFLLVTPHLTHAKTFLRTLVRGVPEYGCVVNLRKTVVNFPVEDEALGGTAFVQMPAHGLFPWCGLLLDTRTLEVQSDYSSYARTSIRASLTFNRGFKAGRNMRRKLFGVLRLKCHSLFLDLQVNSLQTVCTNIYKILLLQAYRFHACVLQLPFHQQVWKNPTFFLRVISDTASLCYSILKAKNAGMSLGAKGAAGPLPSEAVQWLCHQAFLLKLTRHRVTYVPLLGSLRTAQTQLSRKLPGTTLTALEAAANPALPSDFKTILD

SMILES | IC50 [1] [µM] | ΔTm (Nucleic Acid [2]) [°C] | ΔTm (Nucleic Acid [3]) [°C] | ΔTm (Nucleic Acid [4]) [°C] | ΔTm (Nucleic Acid [5]) [°C]
CCN(CC)CCC(=O)NCc1cccc2cc3cccc(CNC(=O)CCN(CC)CC)c3nc12 |  | 2.6 | 9.1 | 7.2 | 10.7
O=C(CN1CCCCC1)NCc1cccc2cc3cccc(CNC(=O)CN4CCCCC4)c3nc12 |  | 0 |  | 0.6 | 14.6
c1cnc(NCc2cccc3cc4cccc(CNc5ncccn5)c4nc23)nc1 |  |  |  |  | 0
CN1CCN(CCC(=O)NCc2cccc3cc4cccc(CNC(=O)CCN5CCN(C)CC5)c4nc23)CC1 | > 30 | 0 | 2.6 | 0.5 | 4.6
c1ccc(CNCc2cccc3cc4cccc(CNCc5ccccc5)c4nc23)cc1 |  |  |  |  | 4.8
O=C(CN1CCCC1)NCc1cccc2cc3cccc(CNC(=O)CN4CCCC4)c3nc12 | > 30 |  |  | 1.4 | 2.6
NCc1cccc2cc3cccc(CN)c3nc12 | > 30 | 0 |  |  | 7.3
CN(C)CCC(=O)NCc1cccc2cc3cccc(CNC(=O)CCN(C)C)c3nc12 | > 30 |  |  | 5 | 8.1
CCN(CC)CC(=O)NCc1cccc2cc3cccc(CNC(=O)CN(CC)CC)c3nc12 |  |  |  |  | 2.4
O=C(CCN1CCCCC1)NCc1cccc2cc3cccc(CNC(=O)CCN4CCCCC4)c3nc12 | > 30 | 2.2 | 7.3 | 6.6 | 10.4

The remaining lines, values ahead:

IC50 [1] [µM] | ΔTm (Nucleic Acid [2]) [°C] | ΔTm (Nucleic Acid [3]) [°C] | ΔTm (Nucleic Acid [4]) [°C] | ΔTm (Nucleic Acid [5]) [°C] | SMILES
0.09 | 29.1 | 41.1 | 34.7 |  | CN(C)c1ccc(Nc2c3ccc(NC(=O)CCN4CCCC4)cc3nc3cc(NC(=O)CCN4CCCC4)ccc23)cc1
0.15 |  |  | 6.7 | 17.7 | CN(C)CCCNCc1cccc2cc3cccc(CNCCCN(C)C)c3nc12
30 | 2.6 | 8.8 | 6.8 | 12.6 | C[N+]1(CC(=O)NCc2cccc3cc4cccc(CNC(=O)C[N+]5(C)CCCCC5)c4nc23)CCCCC1
27 | 0.3 | 7.4 | 4.3 | 9.8 | C[N+]1(CC(=O)NCc2cccc3cc4cccc(CNC(=O)C[N+]5(C)CCCC5)c4nc23)CCCC1
3 | 2.1 | 8.2 | 5.7 | 11 | C[N+](C)(C)CCC(=O)NCc1cccc2cc3cccc(CNC(=O)CC[N+](C)(C)C)c3nc12
> 30 |  |  |  | 3.6 | CN(C)CC(=O)NCc1cccc2cc3cccc(CNC(=O)CN(C)C)c3nc12
12 | 1.3 | 8.1 | 3.7 | 10.2 | O=C(CCCN1CCCCC1)NCc1cccc2cc3cccc(CNC(=O)CCCN4CCCCC4)c3nc12
13 | 3 | 11.9 | 8.8 | 16.4 | O=C(CCCN1CCCC1)NCc1cccc2cc3cccc(CNC(=O)CCCN4CCCC4)c3nc12
4 | 2.3 | 8.7 | 6.8 | 12.6 | C[N+]1(CCC(=O)NCc2cccc3cc4cccc(CNC(=O)CC[N+]5(C)CCCC5)c4nc23)CCCC1
7.3 |  |  | 5.9 | 16.7 | C[N+](C)(C)CC(=O)NCc1cccc2cc3cccc(CNC(=O)C[N+](C)(C)C)c3nc12
6 | 0 | 4.3 | 2.8 | 7.6 | O=C(CCN1CCCC1)NCc1cccc2cc3cccc(CNC(=O)CCN4CCCC4)c3nc12
5.6 |  |  | 4 | 10.2 | CN(C)CCNCc1cccc2cc3cccc(CNCCN(C)C)c3nc12
